Laboratory results published in patent publication US20040034028A1, “4-(biphenylcarbonylamino)piperidine derivatives as mtp inhibitors” (priority 2000, published 2004).

Assays:
[1] = biological target: T1, microsomal triglyceride transfer protein (MTP) (Mesocricetus auratus, UniProt P55158); assay: Inhibition of the activity of MTP (transfer of labelled triglyceride, SPA); type: biochemical, golden hamster; settings: hamster liver MTP, [3H]-trioleine donor liposomes, biot-LDL acceptor, 18-24 hours at 37° C.; read-out: IC50, concentration which allows a 50% inhibition of MTP
T1 construct: The supernatant containing the soluble MTP is dialysed; from tissue; host or cells: golden hamster liver microsomes
T1 sequence (P55158 19-895): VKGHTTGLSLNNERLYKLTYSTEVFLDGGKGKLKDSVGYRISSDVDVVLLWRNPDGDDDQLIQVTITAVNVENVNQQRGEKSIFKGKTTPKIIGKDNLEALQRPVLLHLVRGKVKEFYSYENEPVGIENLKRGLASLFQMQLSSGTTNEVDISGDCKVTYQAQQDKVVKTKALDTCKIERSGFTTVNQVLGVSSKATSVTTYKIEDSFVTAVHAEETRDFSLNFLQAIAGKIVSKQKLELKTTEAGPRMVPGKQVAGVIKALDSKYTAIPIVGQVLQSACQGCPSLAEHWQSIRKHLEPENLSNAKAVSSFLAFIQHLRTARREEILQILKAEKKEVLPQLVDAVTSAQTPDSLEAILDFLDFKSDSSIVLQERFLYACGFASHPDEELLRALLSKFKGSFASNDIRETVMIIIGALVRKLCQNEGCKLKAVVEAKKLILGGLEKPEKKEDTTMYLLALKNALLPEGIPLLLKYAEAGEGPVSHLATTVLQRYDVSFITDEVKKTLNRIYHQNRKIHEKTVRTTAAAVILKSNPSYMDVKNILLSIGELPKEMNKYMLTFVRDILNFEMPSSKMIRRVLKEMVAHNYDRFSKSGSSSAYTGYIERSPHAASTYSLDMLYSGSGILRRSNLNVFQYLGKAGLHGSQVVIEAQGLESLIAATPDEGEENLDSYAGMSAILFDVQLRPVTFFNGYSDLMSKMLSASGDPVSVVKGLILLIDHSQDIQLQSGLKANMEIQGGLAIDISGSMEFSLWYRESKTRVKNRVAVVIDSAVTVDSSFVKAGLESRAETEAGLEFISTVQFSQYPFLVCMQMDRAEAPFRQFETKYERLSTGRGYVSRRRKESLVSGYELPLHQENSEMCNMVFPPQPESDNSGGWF
Experimental: Analysis of th inhibition of the activity of MTP The inhibition of the activity of microsomal triglyceride transfer protein MTP) was tested using the following protocal.
The inhibition of the activity of MTP with a compound may be quantified by observing the inhibition of the transfer of a labeled triglyceride, from a donor particle to an acceptor particle, in the presence of MTP. The procedure for preparing MTP is based on the method by Wetterau and Zilversmit (Biochem. Biophys. Acta (1986) 875 610). A few grams of golden hamster liver are taken and then rinsed several times in a 250 mM sucrose solution at 0° C. All the following steps proceed at +4° C. A 50% homogenate in 250 mM sucrose is prepared using a Teflon mill and then centrifuged for 10 minutes at 10 000×g at +4° C. The supernatant is then centrifuged at 105 000×g for 75 minutes at +4° C. The supematant is removed and the microsomal pellet is taken up in 3 ml (per gram of starting liver) of 150 mM pH 8.0 Tris/HCl. 1 ml aliquot fractions are stored at −80° C. until use.
After thawing a fraction of microsomes (1 ml), 12 ml of refrigerated 50 mM Tris/HCl, 50 mM KCl, 5 mM MgCl2, pH 7.4 buffers and 1.2 ml of deoxycholate (0.54% in water) are added. After incubating for 30 minutes at +4° C. with gentle agitation, the suspension is centrifuged at 105 000×g for 75 minutes. The supernatant containing the soluble MTP is dialysed against 150 mM Tris/HCl, 40 mM NaCl, 1 mM EDTA, 0.02% sodium azide, pH 7.4 buffer (5 times one litre over 2-3 days). […]
The acceptor particles are biotinylated low-density lipoproteins (biot-LDL). […] After incubating for 18-24 hours at 37° C. the reaction is quenched by adding 100 μl of Amersham SPA (Scintillation Proximity Assay) beads coupled to steptavidin and the radioactivity is counted using a Top Count (Packard) at least one hour later. The inhibition of the transfer of triglycerides by a compound is reflected by a reduction in the radioactivity transferred. The percentage of inhibition for a given compound is determined relative to controls which contain no compounds in the reaction mixture. […]

[2] = tested on: secretion of apo B in Hep G2 cells; assay: Inhibition of the secretion of apo B in the Hep G2 human cell line (ELISA); type: cell-based; settings: HepG2, 24 hours incubation, sandwich ELISA for human apo B, read-out: IC50, concentration which produces a 50% inhibition of the secretion of apo B in the Hep G2 cells
Experimental: Analysis of the secretion of apo B in the Hep G2 human cell line:
The activity of a compound according to the invention may be evaluated by measuring the inhibition of the secretion of apo B in Hep G2 cells.
The Hep G2 cells (ECACC—number 85011430) are used as a model in the study of the in vitro hepatic secretion of lipoproteins (Dixon J. and Ginsberg H.—J. Lipid. Res.—1993, 34:167-179).
The Hep G2 cells are cultured in a Dulbecco's modified Eagle medium containing 10% foetal calf serum (DMEM and FCS—Gibco) in 96-well plates in an atmosphere of 5% carbon dioxide for 24 hours (about 70% confluence).
The test compounds are dissolved at 2 or 10 mM in dimethyl sulphoxide (DMSO). Serial dilutions (1:3.16) are performed in DMSO and added (1:200—Robot Multim Beckman) to the growth medium (200 microlitres) and finally incubated for 24 hours in the various wells containing the Hep G2 cells.
The 24-hour culture supernatant diluted to 1:5 (phosphate-buffered saline: PBS containing 1% bovine serum albumin) is tested according to a sandwich ELISA method which is specific for human apo B.
The results are expressed in terms of IC50, namely the concentration which produces a 50% inhibition of the secretion of apo B in the Hep G2 cells.

| Compound | IC50 [1] | IC50 [2] | melting point |
| --- | --- | --- | --- |
| Cc1cccc(CN2CCC(NC(=O)c3ccccc3-c3ccc(C(F)(F)F)cc3)CC2)n1 [A-5, 1-[(6-methyl-2-pyridyl)methyl]-4-[(4′-trifluoromethyl-2-biphenyl)carbonylamino]-piperidine] | 65 nM | 3 nM | 170 °C |
| Cc1ncccc1CN1CCC(NC(=O)c2ccccc2-c2ccc(C(F)(F)F)cc2)CC1 [A-7, 1-[(2-methyl-3-pyridyl)methyl]-4-[(4′-trifluoromethyl-2-biphenyl)carbonylamino]-piperidine] | 84 nM | 74 nM | – |
| O=C(NC1CCN(Cc2ccc3ccccc3n2)CC1)c1ccccc1-c1ccc(C(F)(F)F)cc1 [A-8, 1-(2-quinolylmethyl)-4-[(4′-trifluoromethyl-2-biphenyl)carbonylamino]-piperidine] | 26 nM | 2 nM | 210 °C |
